Laboratory results: PMC11272821, “Mechanistic safety assessment via multi-omic characterisation of systemic pathway perturbations following in vivo MAT2A inhibition” (Archives of Toxicology, 2024)

Legend:
[1] = Liver mass spectrometry imaging; format: in vivo, rat
Protocol: Liver MSI. Tissue samples were snap frozen in dry ice cooled isopentane. Frozen samples were embedded in a HPMA/PVP hydrogel as previously detailed (Dannhorn et al. 2020). Tissue sectioning was performed using a CM1950 cryostat microtome (Leica Biosystems, Nussloch, Germany) at a section thickness of 10 µm. The tissue sections for desorption electrospray ionisation MSI (DESI-MSI), and matrix assisted laser desorption ionisation (MALDI-MSI) were immediately thaw mounted onto Superfrost or indium tin oxide coated microscope slides respectively. Tissue sections for positive ion mode DESI-MSI were washed with xylene for 1 minute to reduce ion suppression of metabolites of interest.
MSI analysis of most metabolites was performed by DESI-MSI and analysis of glutathione and glutathione disulphide was performed with MALDI-MSI. DESI-MSI analysis was carried out using a Q-Exactive mass spectrometer (Thermo Scientific, Bremen, Germany) equipped with an automated 2D-DESI ion source (Prosolia Inc., Indianapolis, IN, USA). Experiments were carried out in both positive and negative mode with a mass range up to a m/z of 1000, with a nominal mass resolution of 70,000. The injection time was fixed to 150 ms resulting in a scan rate of 3.8 pixel/s. […]

[2] = Plasma toxicokinetic analysis after twice daily oral dosing; format: in vivo; conditions: rat, n = 5
Protocol: All in vivo experimental procedures were conducted in accordance with United Kingdom legislation (Animals (Scientific Procedures) Act, 1986) and were compliant with the ARRIVE guidelines. 8–10 week old male (210–230 g) Crl:WI Han Wistar rats (Charles River Laboratories Ltd, UK) were acclimatised to the facility for 10 days and then randomised to groups based on bodyweight.
A whole blood sample (32 µL) was collected via a tail vein prick into a K2EDTA treated capillary tube, centrifuged at 1,500 g for 10 min at 4 °C, and plasma collected using a micropipette (non-EDTA Ref.no. 172292, Vitrex Medical A/S, Denmark). Samples were collected on Day 1 and Day 7 at 1 h, 2 h, 4 h, 8 h (pre-second dose), 10 h and 24 h post the first dose.
Calibration and quality control samples were prepared in rat plasma with a target concentration range for quantification of 0.1 – 100 µmol/L. Sample preparation: 8 µl of plasma were diluted in 92 µl of 5% (w/v) bovine serum albumin in phosphate buffer and gently shaken for 10 min before 5 min centrifugation at 2400 g at 4°C. 25 µL were transferred to new tubes and 150 µl of acetonitrile containing an internal standard were added for protein precipitation. After thorough mixing and centrifugation for 5 min at 2400 g and 4°C, 75 µl of supernatant were transferred into new tubes and diluted in 150 µL water/HCOOH (100:0.2, v/v) then thoroughly vortexed and again centrifuged for 5 min at 2400 g and 4°C. 1.5 µl of the supernatant were injected for LC-MS/MS analysis utilizing an Acquity UPLC BEH C18, 2.1x50 […], 1.7 µ column at 60° C. Mobile phase A: Acetonitrile/HCOOH (100/0.2, v/v) and B: water/HCCOH (100/0.2, v/v). Flow rate: 0.75 mL/min.

5-HT4 receptor = molecular target: T1, 5-HT4 receptor (Homo sapiens, UniProt Q13639); assay: Radioligand binding assay
T1 construct: Eurofins
Protocol: (§1) Secondary pharmacology assays were performed at Eurofins using standard experimental techniques against a total of 86 targets across a broad pharmacological space. Assay details along with experimental protocols are described at https://www.eurofinsdiscoveryservices.com. […] Assays measuring substrate turnover or phosphorylation by isolated proteins were used for kinase and enzyme targets, allowing direct determination of the mode of action of the compounds. […] Assays were run in eight points concentration response mode with half log dilutions and IC50, EC50 or Ki (Cheng and Prusoff [1973]) values determined.

α1B adrenoceptor = molecular target: T2, α1B adrenoceptor (Homo sapiens, UniProt P35368); assay: Radioligand binding assay
T2 construct: Eurofins
T2 sequence (P35368 1-520): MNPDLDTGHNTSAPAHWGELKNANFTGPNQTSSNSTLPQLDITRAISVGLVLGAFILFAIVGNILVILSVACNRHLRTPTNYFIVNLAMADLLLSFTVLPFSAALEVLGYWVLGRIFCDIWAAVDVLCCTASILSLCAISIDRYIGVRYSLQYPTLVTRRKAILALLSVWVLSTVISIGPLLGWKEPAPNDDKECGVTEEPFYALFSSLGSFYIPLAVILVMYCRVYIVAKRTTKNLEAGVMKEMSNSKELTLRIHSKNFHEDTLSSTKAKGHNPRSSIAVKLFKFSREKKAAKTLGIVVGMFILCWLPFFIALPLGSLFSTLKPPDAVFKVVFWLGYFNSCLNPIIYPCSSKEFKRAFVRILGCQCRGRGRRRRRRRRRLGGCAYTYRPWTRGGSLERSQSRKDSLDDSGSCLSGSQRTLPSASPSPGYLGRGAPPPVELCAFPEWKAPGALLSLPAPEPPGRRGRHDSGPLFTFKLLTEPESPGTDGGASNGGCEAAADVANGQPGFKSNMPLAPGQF
Protocol: as §1

[3] = molecular target: T3, Peroxisome proliferator-activated receptor-γ (Homo sapiens, UniProt P37231); assay: Radioligand binding assay
T3 construct: Eurofins
Protocol: as §1

[4] = molecular target: T4, Noradrenaline Transporter (NET) (Homo sapiens, UniProt P23975); assay: Radioligand binding assay
T4 construct: Eurofins
Protocol: as §1

[5] = molecular target: T5, SST4 somatostatin receptor (Homo sapiens, UniProt P31391); assay: Radioligand binding assay
T5 construct: Eurofins
Protocol: as §1

AT1 angiotensin receptor = molecular target: T6, AT1 angiotensin receptor (Homo sapiens, UniProt P30556); assay: Radioligand binding assay
T6 construct: Eurofins
Protocol: as §1

[6] = molecular target: T7, Dopamine transporter (DAT) (Homo sapiens, UniProt Q01959); assay: Radioligand binding assay
T7 construct: Eurofins
Protocol: as §1

T4 sequence (P23975 whole entry): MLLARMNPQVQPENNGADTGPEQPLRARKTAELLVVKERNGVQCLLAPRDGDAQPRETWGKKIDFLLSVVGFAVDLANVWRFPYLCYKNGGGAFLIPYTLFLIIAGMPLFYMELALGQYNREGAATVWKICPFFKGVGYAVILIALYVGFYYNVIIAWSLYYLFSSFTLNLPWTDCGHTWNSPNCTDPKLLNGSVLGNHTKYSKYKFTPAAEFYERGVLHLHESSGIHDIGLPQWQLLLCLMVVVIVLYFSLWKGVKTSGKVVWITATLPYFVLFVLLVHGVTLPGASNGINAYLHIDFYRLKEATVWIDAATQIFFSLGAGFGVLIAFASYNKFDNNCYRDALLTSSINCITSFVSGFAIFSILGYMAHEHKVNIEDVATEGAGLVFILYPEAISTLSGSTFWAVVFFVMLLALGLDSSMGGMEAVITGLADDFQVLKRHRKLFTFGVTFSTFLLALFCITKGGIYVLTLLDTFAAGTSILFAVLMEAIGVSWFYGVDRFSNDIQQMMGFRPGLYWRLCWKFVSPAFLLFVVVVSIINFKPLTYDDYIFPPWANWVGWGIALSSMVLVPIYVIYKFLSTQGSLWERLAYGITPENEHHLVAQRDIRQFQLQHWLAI
T3 sequence (P37231 whole entry): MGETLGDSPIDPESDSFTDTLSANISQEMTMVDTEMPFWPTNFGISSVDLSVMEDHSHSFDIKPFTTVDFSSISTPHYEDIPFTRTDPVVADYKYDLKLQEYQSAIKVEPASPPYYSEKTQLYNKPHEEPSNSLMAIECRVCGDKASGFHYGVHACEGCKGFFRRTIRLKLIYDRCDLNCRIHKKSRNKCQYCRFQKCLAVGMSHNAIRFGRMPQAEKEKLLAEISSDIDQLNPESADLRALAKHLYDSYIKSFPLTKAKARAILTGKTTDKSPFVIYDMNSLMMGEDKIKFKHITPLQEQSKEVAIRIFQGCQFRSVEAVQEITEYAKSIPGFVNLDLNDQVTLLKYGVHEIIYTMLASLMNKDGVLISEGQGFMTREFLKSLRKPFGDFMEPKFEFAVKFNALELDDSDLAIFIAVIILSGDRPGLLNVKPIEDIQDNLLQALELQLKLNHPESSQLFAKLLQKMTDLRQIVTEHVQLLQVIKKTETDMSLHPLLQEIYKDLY
T6 sequence (P30556 whole entry): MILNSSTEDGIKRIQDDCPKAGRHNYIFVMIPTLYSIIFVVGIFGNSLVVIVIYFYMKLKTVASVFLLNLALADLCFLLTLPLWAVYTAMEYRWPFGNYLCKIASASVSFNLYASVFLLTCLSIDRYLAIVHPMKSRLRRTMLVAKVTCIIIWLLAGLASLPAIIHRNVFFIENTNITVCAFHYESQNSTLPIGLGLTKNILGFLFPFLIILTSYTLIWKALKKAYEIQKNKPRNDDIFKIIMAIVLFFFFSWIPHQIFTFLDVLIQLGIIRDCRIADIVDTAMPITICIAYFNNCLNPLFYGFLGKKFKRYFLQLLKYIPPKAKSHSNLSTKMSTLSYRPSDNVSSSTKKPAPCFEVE
T1 sequence (Q13639 whole entry): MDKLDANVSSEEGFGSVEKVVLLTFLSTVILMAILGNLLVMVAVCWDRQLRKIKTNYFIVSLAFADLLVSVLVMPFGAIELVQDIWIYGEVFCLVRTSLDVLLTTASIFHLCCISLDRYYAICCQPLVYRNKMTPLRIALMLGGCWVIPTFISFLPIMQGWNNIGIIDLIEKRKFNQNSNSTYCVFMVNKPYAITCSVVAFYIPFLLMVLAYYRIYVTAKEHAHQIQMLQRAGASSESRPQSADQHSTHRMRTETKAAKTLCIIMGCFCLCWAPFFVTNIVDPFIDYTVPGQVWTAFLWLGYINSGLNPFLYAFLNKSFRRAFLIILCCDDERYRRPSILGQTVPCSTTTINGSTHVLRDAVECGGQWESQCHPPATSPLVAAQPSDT
T7 sequence (Q01959 whole entry): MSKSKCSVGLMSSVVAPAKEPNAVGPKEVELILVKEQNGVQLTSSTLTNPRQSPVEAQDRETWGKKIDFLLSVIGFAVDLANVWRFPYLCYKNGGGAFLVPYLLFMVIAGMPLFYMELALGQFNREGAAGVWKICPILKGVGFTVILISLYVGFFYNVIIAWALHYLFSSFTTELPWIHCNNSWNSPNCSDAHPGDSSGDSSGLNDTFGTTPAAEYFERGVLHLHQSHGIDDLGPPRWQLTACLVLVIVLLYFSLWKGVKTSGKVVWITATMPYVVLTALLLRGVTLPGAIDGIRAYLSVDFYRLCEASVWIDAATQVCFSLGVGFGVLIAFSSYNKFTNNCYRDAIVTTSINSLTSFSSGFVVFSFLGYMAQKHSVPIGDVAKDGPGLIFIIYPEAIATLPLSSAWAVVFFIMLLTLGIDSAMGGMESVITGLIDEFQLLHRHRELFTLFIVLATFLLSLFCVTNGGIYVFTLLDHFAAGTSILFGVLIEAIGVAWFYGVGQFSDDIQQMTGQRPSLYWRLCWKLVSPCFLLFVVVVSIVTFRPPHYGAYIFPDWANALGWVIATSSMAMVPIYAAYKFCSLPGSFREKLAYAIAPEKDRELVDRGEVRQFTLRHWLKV
T5 sequence (P31391 whole entry): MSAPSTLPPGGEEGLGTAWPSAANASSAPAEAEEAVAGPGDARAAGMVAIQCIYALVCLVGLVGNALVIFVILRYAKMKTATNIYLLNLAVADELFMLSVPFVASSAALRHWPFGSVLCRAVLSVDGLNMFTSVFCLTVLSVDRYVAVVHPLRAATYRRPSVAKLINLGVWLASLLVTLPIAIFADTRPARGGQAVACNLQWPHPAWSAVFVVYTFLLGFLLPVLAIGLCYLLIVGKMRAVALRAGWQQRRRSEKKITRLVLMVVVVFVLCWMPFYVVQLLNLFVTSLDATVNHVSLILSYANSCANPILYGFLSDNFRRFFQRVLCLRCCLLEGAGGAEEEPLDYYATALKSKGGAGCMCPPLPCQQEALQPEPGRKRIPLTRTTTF

Cn1cc2cc(-c3cc4[nH]nc(C5CC5)c4n(-c4ccc(OC(F)F)cc4)c3=O)ccc2n1 [AZ’9567]
distribution of the compound in liver sections [1]: mostly homogenously across the liver with hotspots of increased abundance in the blood vessels | Free AUC24h ([2]; 3 mg/kg BID, day 1, mean ± SD): 0.69 ± 0.07 µM·h | Free Cmax ([2]; 3 mg/kg BID, day 1, mean ± SD): 40 ± 4 nM | Free Cmin24h ([2]; 3 mg/kg BID, day 1, mean ± SD): 10 ± 1 nM | Free AUC24h ([2]; 3 mg/kg BID, day 7, mean ± SD): 0.76 ± 0.11 µM·h | Free Cmax ([2]; 3 mg/kg BID, day 7, mean ± SD): 50 ± 10 nM | Free Cmin24h ([2]; 3 mg/kg BID, day 7, mean ± SD): 10 ± 2 nM | Free AUC24h ([2]; 10 mg/kg BID, day 1, mean ± SD): 2.6 ± 1.1 µM·h | Free Cmax ([2]; 10 mg/kg BID, day 1, mean ± SD): 210 ± 60 nM | Free Cmin24h ([2]; 10 mg/kg BID, day 1, mean ± SD): 40 ± 20 nM | Free AUC24h ([2]; 10 mg/kg BID, day 7, mean ± SD): 3.9 ± 0.70 µM·h | Free Cmax ([2]; 10 mg/kg BID, day 7, mean ± SD): 270 ± 110 nM | Free Cmin24h ([2]; 10 mg/kg BID, day 7, mean ± SD): 80 ± 30 nM | Free AUC24h ([2]; 30 mg/kg BID, day 1, mean ± SD): 12 ± 1.1 µM·h | Free Cmax ([2]; 30 mg/kg BID, day 1, mean ± SD): 870 ± 190 nM | Free Cmin24h ([2]; 30 mg/kg BID, day 1, mean ± SD): 140 ± 40 nM | Free AUC24h ([2]; 30 mg/kg BID, day 7, mean ± SD): 9.9 ± 2.2 µM·h | Free Cmax ([2]; 30 mg/kg BID, day 7, mean ± SD): 680 ± 190 nM | Free Cmin24h ([2]; 30 mg/kg BID, day 7, mean ± SD): 150 ± 50 nM | Ki (5-HT4 receptor): 10.3 µM | Ki (α1B adrenoceptor): 28.9 µM | Ki [3]: 33.3 µM | Ki [4]: 33.3 µM | Ki [5]: 50.6 µM | Ki (AT1 angiotensin receptor): 12.7 µM | Ki [6]: 22.6 µM
